One test concerns the target T1, SMARCA2-HiBiT (Homo sapiens, UniProt P51531).
T1 construct: SMARCA2-HiBiT knock-in Hela monoclonal cell (CS302366); host or cells: HeLa monoclonal knock-in line (CRISPR HiBiT knock-in at the endogenous locus, heterozygous)
In words: SMARCA2 HiBiT degradation assay in HeLa cells. Type of test: cell-based. Particulars: 18 hours incubation; for DC50: read-out: HeLa_HiBit-SM2 DC50; for Dmax: HeLa, read-out: HeLa-HiBit-SM2 Dmax (%). A digest of the protocol:
(§1)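 HeLa monoclonal lines with heterozygous HiBiT knock-in were seeded at 2500 cells/well in EMEM with 10% FBS and treated with compound for 18 h at 37 °C. Remaining tagged protein was measured by Nano-Glo HiBiT lytic luminescence after 30–60 min at RT, and values came from curve fitting.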
Background: The HiBiT peptide binds its large partner to form an active luciferase.

The next test addresses T2, SMARCA4-HiBiT (Homo sapiens, UniProt P51532).
T2 construct: SMARCA4-HiBiT knock-in Hela monoclonal cell (CS3023226); host or cells: HeLa monoclonal knock-in line (CRISPR HiBiT knock-in at the endogenous locus, heterozygous)
In words: SMARCA4 HiBiT degradation assay in HeLa cells. The test is classed as cell-based. The note with it: 18 hours incubation; for DC50: read-out: HeLa-HiBit-SM4 DC50; for Dmax: HeLa, read-out: HeLa-HiBit-SM4 Dmax (%). A digest of the protocol:
as §1

SMILES strings stand for the structures.

T1 sequence (P51531 whole entry): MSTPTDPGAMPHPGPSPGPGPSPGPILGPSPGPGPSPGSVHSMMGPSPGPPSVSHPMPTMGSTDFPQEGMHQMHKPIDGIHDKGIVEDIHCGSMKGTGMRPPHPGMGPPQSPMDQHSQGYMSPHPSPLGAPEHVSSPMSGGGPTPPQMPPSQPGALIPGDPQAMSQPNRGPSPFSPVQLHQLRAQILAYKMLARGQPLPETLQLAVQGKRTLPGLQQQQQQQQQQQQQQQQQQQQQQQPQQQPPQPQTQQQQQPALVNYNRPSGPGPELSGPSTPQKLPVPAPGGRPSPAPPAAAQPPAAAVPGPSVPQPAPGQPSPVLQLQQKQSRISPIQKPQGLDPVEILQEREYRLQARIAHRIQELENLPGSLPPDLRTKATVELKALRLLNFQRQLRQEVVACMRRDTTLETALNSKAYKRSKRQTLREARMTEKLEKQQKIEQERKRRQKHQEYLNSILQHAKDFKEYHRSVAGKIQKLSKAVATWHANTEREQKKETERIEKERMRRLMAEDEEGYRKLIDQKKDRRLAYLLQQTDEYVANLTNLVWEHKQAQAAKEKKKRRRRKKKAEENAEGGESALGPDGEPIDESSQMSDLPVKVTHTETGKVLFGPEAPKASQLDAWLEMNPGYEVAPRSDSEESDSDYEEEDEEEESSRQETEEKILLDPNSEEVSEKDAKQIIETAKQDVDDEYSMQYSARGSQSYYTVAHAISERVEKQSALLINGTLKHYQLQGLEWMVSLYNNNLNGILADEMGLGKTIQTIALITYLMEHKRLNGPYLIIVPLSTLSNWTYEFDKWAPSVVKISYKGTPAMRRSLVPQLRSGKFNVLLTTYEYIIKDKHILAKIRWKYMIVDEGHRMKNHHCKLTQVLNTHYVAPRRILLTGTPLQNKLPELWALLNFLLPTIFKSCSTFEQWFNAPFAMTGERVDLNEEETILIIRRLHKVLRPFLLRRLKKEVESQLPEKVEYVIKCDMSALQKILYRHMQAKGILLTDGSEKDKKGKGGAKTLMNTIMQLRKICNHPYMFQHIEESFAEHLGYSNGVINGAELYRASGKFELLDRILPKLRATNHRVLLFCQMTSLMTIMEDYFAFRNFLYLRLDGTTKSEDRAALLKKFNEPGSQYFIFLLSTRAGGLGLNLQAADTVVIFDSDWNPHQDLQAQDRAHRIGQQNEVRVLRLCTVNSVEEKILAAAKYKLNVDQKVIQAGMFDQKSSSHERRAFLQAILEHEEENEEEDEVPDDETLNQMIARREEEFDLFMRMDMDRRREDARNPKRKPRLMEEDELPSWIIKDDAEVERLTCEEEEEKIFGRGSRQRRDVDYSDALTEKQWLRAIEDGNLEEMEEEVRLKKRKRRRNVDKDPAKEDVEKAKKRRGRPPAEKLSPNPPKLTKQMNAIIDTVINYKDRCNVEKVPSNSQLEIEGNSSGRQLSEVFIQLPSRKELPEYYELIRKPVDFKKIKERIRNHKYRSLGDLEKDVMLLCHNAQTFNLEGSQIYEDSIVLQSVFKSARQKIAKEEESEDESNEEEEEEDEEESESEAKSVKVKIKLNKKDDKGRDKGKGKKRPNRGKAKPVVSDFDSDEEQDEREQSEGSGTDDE
T2 sequence (P51532 whole entry): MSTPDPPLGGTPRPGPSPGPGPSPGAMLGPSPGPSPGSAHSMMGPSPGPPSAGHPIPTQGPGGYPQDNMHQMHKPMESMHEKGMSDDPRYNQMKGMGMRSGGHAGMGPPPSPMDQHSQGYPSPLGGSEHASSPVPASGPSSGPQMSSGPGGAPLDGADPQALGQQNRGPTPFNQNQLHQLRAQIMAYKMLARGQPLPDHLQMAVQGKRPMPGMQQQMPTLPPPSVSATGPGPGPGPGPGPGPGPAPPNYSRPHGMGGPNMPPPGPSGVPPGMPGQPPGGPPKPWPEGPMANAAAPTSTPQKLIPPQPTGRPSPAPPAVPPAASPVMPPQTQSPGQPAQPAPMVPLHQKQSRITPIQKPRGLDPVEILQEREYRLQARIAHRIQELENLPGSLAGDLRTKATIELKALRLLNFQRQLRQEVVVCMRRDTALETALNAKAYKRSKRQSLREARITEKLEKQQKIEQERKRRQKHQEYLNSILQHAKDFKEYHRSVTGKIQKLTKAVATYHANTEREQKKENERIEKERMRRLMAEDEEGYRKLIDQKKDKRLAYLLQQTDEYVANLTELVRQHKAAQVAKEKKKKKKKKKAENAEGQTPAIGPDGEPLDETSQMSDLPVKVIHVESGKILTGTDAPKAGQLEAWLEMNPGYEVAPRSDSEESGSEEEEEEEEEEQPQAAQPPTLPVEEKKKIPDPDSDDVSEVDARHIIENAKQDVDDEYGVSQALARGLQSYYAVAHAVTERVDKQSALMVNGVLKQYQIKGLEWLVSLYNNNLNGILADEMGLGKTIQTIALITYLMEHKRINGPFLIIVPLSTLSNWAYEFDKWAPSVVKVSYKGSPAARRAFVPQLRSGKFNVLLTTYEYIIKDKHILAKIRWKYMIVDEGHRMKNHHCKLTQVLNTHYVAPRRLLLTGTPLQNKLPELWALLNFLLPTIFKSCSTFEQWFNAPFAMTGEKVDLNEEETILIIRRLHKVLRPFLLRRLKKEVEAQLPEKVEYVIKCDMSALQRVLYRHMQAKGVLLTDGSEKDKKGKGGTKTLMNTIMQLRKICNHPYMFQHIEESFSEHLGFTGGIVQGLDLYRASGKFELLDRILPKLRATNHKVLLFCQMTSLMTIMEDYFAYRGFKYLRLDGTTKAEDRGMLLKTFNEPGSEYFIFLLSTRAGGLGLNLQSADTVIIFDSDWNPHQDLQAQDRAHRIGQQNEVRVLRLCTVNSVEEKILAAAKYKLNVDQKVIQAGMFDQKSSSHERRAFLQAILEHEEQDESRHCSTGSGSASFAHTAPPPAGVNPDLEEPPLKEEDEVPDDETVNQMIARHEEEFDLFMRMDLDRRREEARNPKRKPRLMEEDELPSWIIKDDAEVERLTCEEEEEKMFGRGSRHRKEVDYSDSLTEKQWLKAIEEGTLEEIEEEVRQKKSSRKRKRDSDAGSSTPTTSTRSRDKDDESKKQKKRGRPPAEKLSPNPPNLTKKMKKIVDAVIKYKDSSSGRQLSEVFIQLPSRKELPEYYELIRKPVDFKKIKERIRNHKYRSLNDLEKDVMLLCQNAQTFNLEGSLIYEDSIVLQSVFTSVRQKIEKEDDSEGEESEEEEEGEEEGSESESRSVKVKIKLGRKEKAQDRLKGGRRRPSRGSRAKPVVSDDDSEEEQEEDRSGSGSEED

As for `O=C1CCC(N2Cc3ccc(N4CCOC(CN5CCC(C(=O)N6CCN7c8cc(-c9ccccc9O)nnc8NC[C@H]7C6)CC5)C4)cc3C2=O)C(=O)N1` (stereo partly drawn) [Example 113, 3-(6-(2-((4-((S)-2-(2-hydroxyphenyl)-6,6a,7,8,9,10-hexahydro-5H-pyrazino[1′,2′:4,5]pyrazino[2,3-c]pyridazine-8-carbonyl)piperidin-1-yl)methyl)morpholino)-1-oxoisoindolin-2-yl)piperidine-2,6-dione], on SMARCA2-HiBiT, the DC50 is below 10 nM and the maximal degradation (Dmax) is at most 50%. At SMARCA4-HiBiT, the 50% degradation concentration (DC50) fell in the range of 10 to 100 nM and the Dmax lay within 50 to 75%.
As to `C[C@@H]1CN(CC2CCN(c3ccc4c(c3)C(=O)N(C3CCC(=O)NC3=O)C4)CC2)CCN1C(=O)N1CCN2c3cc(-c4ccccc4O)nnc3NC[C@H]2C1` (stereo partly drawn) [Example 114, 3-(6-(4-(((R)-4-((S)-2-(2-hydroxyphenyl)-6,6a,7,8,9,10-hexahydro-5H-pyrazino[1′,2′:4,5]pyrazino[2,3-c]pyridazine-8-carbonyl)-3-methylpiperazin-1-yl)methyl)piperidin-1-yl)-1-oxoisoindolin-2-yl)piperidine-2,6-dione], at SMARCA2-HiBiT, the DC50 was below 10 nM and the Dmax is above 85%. Further, on SMARCA4-HiBiT, the half-maximal degradation concentration (DC50) was below 10 nM and the Dmax is 75 to 85%.
Turning to `C[C@@H]1CN(CC2CCN(c3ccc4c(c3)C(=O)N(C3CCC(=O)NC3=O)C4=O)CC2)CCN1C(=O)N1CCN2c3cc(-c4ccccc4O)nnc3NC[C@H]2C1` (stereo partly drawn) [Example 115, 2-(2,6-dioxopiperidin-3-yl)-5-(4-(((R)-4-((S)-2-(2-hydroxyphenyl)-6,6a,7,8,9,10-hexahydro-5H-pyrazino[1′,2′:4,5]pyrazino[2,3-c]pyridazine-8-carbonyl)-3-methyl-piperazin-1-yl)methyl)piperidin-1-yl)isoindoline-1,3-dione], on SMARCA2-HiBiT, the half-maximal degradation concentration (DC50) is below 10 nM and the Dmax was in the range of 50 to 75%. Moreover, on SMARCA4-HiBiT, the DC50 is below 10 nM and the Dmax lay within 50 to 75%.
For the compound `C[C@H]1CN(CC2CCN(c3ccc4c(c3)C(=O)N(C3CCC(=O)NC3=O)C4=O)CC2)CCN1C(=O)N1CCN2c3cc(-c4ccccc4O)nnc3NC[C@H]2C1` (stereo partly drawn) [Example 116, 2-(2,6-dioxopiperidin-3-yl)-5-(4-(((S)-4-((S)-2-(2-hydroxyphenyl)-6,6a,7,8,9,10-hexahydro-5H-pyrazino[1′,2′:4,5]pyrazino[2,3-c]pyridazine-8-carbonyl)-3-methyl-piperazin-1-yl)methyl)piperidin-1-yl)isoindoline-1,3-dione], at SMARCA2-HiBiT, the DC50 is below 10 nM and the Dmax lay in the range of 75 to 85%. Moreover, on SMARCA4-HiBiT, the half-maximal degradation concentration (DC50) is below 10 nM and the Dmax is 50 to 75%.
With `O=C1CCC(N2C(=O)c3ccc(N4CCOC(CN5CCN(C(=O)N6CCN7c8cc(-c9ccccc9O)nnc8NC[C@H]7C6)CC5)C4)cc3C2=O)C(=O)N1` (stereo partly drawn) [Example 117, 2-(2,6-dioxopiperidin-3-yl)-5-(2-((4-((S)-2-(2-hydroxyphenyl)-6,6a,7,8,9,10-hexahydro-5H-pyrazino[1′,2′:4,5]pyrazino[2,3-c]pyridazine-8-carbonyl)piperazin-1-yl)methyl)morpholino)isoindoline-1,3-dione], at SMARCA2-HiBiT, the DC50 is below 10 nM and the Dmax was in the range of 75 to 85%. For the same compound, on SMARCA4-HiBiT, the DC50 was 10 to 100 nM and the maximal degradation (Dmax) was at most 50%.
Taken in the same sequence, the figures for `O=C1CCC(N2Cc3ccc(C4CCN(CCN5CCC(N6CCN7c8cc(-c9ccccc9O)nnc8NC[C@H]7C6)CC5)CC4)cc3C2=O)C(=O)N1` (stereo partly drawn) [Example 118, 3-(6-(1-(2-(4-((S)-2-(2-hydroxyphenyl)-5,6,6a,7,9,10-hexahydro-8H-pyrazino[1′,2′:4,5]pyrazino[2,3-c]pyridazin-8-yl)piperidin-1-yl)ethyl)piperidin-4-yl)-1-oxoisoindolin-2-yl)piperidine-2,6-dione] were below 10 nM, above 85%, 10 to 100 nM and above 85%.
In the case of `O=C1CCC(N2Cc3ccc(N4CCN(CCN5CCC(CN6CCN7c8cc(-c9ccccc9O)nnc8NC[C@H]7C6)CC5)CC4)cc3C2=O)C(=O)N1` (stereo partly drawn) [Example 119, 3-(6-(4-(2-(4-(((S)-2-(2-hydroxyphenyl)-5,6,6a,7,9,10-hexahydro-8H-pyrazino[1′,2′:4,5]pyrazino[2,3-c]pyridazin-8-yl)methyl)piperidin-1-yl)ethyl)piperazin-1-yl)-1-oxoisoindolin-2-yl)piperidine-2,6-dione], the DC50 at SMARCA2-HiBiT and on SMARCA4-HiBiT was below 10 nM each time. Also, the Dmax at SMARCA2-HiBiT and at SMARCA4-HiBiT was above 85% in each case.
As to `O=C1CCC(N2Cc3ccc(C4CCN(CCN5CCC(CN6CCN7c8cc(-c9ccccc9O)nnc8NC[C@H]7C6)CC5)CC4)cc3C2=O)C(=O)N1` (stereo partly drawn) [Example 120, 3-(6-(1-(2-(4-(((S)-2-(2-hydroxyphenyl)-5,6,6a,7,9,10-hexahydro-8H-pyrazino[1′,2′:4,5]pyrazino[2,3-c]pyridazin-8-yl)methyl)piperidin-1-yl)ethyl)piperidin-4-yl)-1-oxoisoindolin-2-yl) piperidine-2,6-dione], at SMARCA2-HiBiT, the DC50 is below 10 nM and the Dmax was above 85%. Moreover, at SMARCA4-HiBiT, the DC50 was in the range of 10 to 100 nM and the Dmax is above 85%.
In the case of `O=C1CCC(N2Cc3ccc(N4CCN(CCCN5CCC(CN6CCN7c8cc(-c9ccccc9O)nnc8NC[C@H]7C6)CC5)CC4)cc3C2=O)C(=O)N1` (stereo partly drawn) [Example 121, 3-(6-(4-(3-(4-(((S)-2-(2-hydroxyphenyl)-5,6,6a,7,9,10-hexahydro-8H-pyrazino[1′,2′:4,5]pyrazino[2,3-c]pyridazin-8-yl)methyl)piperidin-1-yl)propyl)piperazin-1-yl)-1-oxoisoindolin-2-yl)piperidine-2,6-dione], at SMARCA2-HiBiT, the DC50 is below 10 nM and the Dmax was above 85%. Besides, at SMARCA4-HiBiT, the DC50 fell in the range of 10 to 100 nM and the Dmax lay in the range of 75 to 85%.
As for `O=C1CCC(N2Cc3ccc(C4CCN(CCCN5CCC(CN6CCN7c8cc(-c9ccccc9O)nnc8NC[C@H]7C6)CC5)CC4)cc3C2=O)C(=O)N1` (stereo partly drawn) [Example 122, 3-(6-(1-(3-(4-(((S)-2-(2-hydroxyphenyl)-5,6,6a,7,9,10-hexahydro-8H-pyrazino[1′,2′:4,5]pyrazino[2,3-c]pyridazin-8-yl)methyl)piperidin-1-yl)propyl)piperidin-4-yl)-1-oxoisoindolin-2-yl)piperidine-2,6-dione], at SMARCA2-HiBiT, the DC50 was 10 to 100 nM and the Dmax is above 85%. Further, on SMARCA4-HiBiT, the DC50 was in the range of 10 to 100 nM and the Dmax lay within 75 to 85%.
Turning to `CC(C)(C)C(=O)OCN1C(=O)CCC(N2C(=O)c3cccc(N4CCC(N5CCC(N6CCN7c8cc(-c9ccccc9O)nnc8NC[C@H]7C6)CC5)CC4)c3C2=O)C1=O` (stereo partly drawn) [Example 123, (3-(4-(4-((S)-2-(2-hydroxyphenyl)-5,6,6a,7,9,10-hexahydro-811-pyrazino [1′,2′:4,5]pyrazino[2,3-c]pyridazin-8-yl)-[1,4′-bipiperidin]-1′-yl)-1,3-dioxoisoindolin-2-yl)-2,6-dioxopiperidin-1-yl)methyl pivalate], the DC50 at SMARCA2-HiBiT and on SMARCA4-HiBiT was below 10 nM in each case. For the same compound, the Dmax at SMARCA2-HiBiT and at SMARCA4-HiBiT was 75 to 85% throughout.
For `CC1CN(CCCC2CCN(c3cccc4c3C(=O)N(C3CCC(=O)NC3=O)C4=O)CC2)CCC1N1CCN2c3cc(-c4ccccc4O)nnc3NC[C@H]2C1` (stereo partly drawn) [Example 124, 2-(2,6-dioxopiperidin-3-yl)-4-(4-(3-(4-((S)-2-(2-hydroxyphenyl)-5,6,6a,7,9,10-hexahydro-811-pyrazino[1′,2′:4,5]pyrazino[2,3-c]pyridazin-8-yl)-3-methylpiperidin-1-yl)propyl)piperidin-1-yl) isoindoline-1,3-dione], the DC50 at SMARCA2-HiBiT and on SMARCA4-HiBiT was below 10 nM each time. The greatest degradation seen (Dmax) at SMARCA2-HiBiT and on SMARCA4-HiBiT was 50 to 75% throughout.
In the case of `O=C1CCC(N2C(=O)c3cccc(N4CCC(CCCN5C6CCC5CC(N5CCN7c8cc(-c9ccccc9O)nnc8NC[C@H]7C5)C6)CC4)c3C2=O)C(=O)N1` (stereo partly drawn) [Example 125, 2-(2,6-dioxopiperidin-3-yl)-4-(4-(3-(3-((S)-2-(2-hydroxyphenyl)-5,6,6a,7,9,10-hexahydro-8H-pyrazino[1′,2′:4,5]pyrazino[2,3-c]pyridazin-8-yl)-8-azabicyclo[3.2.1]octan-8-yl)propyl)piperidin-1-yl)isoindoline-1,3-dione], on SMARCA2-HiBiT, the DC50 is below 10 nM and the Dmax was in the range of 75 to 85%. Moreover, at SMARCA4-HiBiT, the DC50 was below 10 nM and the Dmax fell in the range of 75 to 85%.
On to `CC1CC(N2CCN3c4cc(-c5ccccc5O)nnc4NC[C@H]3C2)CCN1CCCC1CCN(c2cccc3c2C(=O)N(C2CCC(=O)NC2=O)C3=O)CC1` (stereo partly drawn) [Example 126, 2-(2,6-dioxopiperidin-3-yl)-4-(4-(3-(4-((S)-2-(2-hydroxyphenyl)-5,6,6a,7,9,10-hexahydro-8H-pyrazino[1′,2′:4,5]pyrazino[2,3-c]pyridazin-8-yl)-2-methylpiperidin-1-yl)propyl)piperidin-1-yl)isoindoline-1,3-dione], for which, at SMARCA2-HiBiT, the DC50 was below 10 nM and the Dmax is above 85%. Also, at SMARCA4-HiBiT, the DC50 is below 10 nM and the Dmax is 75 to 85%.

The term DC50 denotes the concentration at which degradation of the target reaches its halfway point. As a reminder, the Dmax is the greatest extent of degradation seen.
